Patent US20090149482A1, “STEREOCHEMICALLY DEFINED DIPEPTIDE ESTERS OF ANTIVIRAL AGENTS FOR ENHANCED OCULAR TREATMENT” (priority 2001, published 2009)
In brackets after ≈: the same amount, converted by molar mass. Several values for one entry are separate records, joined by “and”; a condition that tells them apart may be missing. Equal values may be shown once. Read-outs that look alike come from different tables or passages of the source.

Legend:
HSV-1 strain McKrae = assay: HSV-1 epithelial keratitis rabbit model, topical treatment, SLE scores; assay type: in vivo; conditions: 14 days post-inoculation, 1% topical 5 times per day
Text: (§1) The rabbit eye is an excellent model to study acute HSV-1 epithelial keratitis. Also, spontaneous and induced ocular HSV-1 shedding and corneal epithelial disease in rabbits has been used as a model of human ocular HSV-1 reactivation and recurrence. HSV-1 strain McKrae was used in studies for epithelial keratitis. HSV-1 strain RE was used for studies of HSV stromal keratitis.
i) Epithelial Keratitis: A group of ten rabbits was used to study each compound. Both eyes of all rabbits were used. An aqueous vehicle (like a placebo) and one positive control were obtained using 1% TFT (Viroptic®). Each compound at 1% concentration (TFT=33 mM, Gly-Gly-ACV=26.6 mM, Val-Val-ACV=18.6 mM) were applied (50 μl) topically 5 times per day every two hours starting at 8:00 a.m. and ending at 4:00 p.m. The treatment began on the 3rd post-inoculation day and continued for 5 consecutive days. Slit-lamp examinations were performed once every day for 8 days and thereafter once every other day until lesions resolved.

[1] = system: rabbit corneal cell line (SIRC); conditions: SIRC cells
HSV-1 strain RE = assay: HSV-1 stromal keratitis rabbit model, topical treatment, SLE scores; assay type: in vivo; conditions: 13 days post-inoculation, 1% topical
Text: as §1
ii) Stromal Keratitis: The experiment is similar to the part (i) experiment as far as the treatment cycles for all experimental drugs (TFT and Val-Val-ACV) are concerned. The effect of Val-Val-ACV on stromal keratitis induced by intrastromal injection with a high (20 μl of a 1×10^7 pfu/ml stock) titer of HSV-1RE strain was compared to that of TFT. Each compound at 1% concentration (TFT=33 mM, Val-Val-ACV=18.6 mM) was applied topically. The same scoring as noted in Table 4 is used for stromal keratitis. Emphasis is placed on the stromal edema and visibility into the aqueous chamber and the visualization of the pupil and iris.
A group of ten rabbits were used to study each compound. Both eyes of all rabbits were treated. Three to four groups of 10 rabbits are used in one experiment. This includes vehicle control, TFT, and the newly synthesized antiviral Val-Val-ACV.

hPEPT1 = biological target: T1, hPEPT1 (Homo sapiens, UniProt P46059); assay: [3H] Glycylsarcosine uptake and its inhibition in Caco-2 cells (affinity towards peptide transporter); assay type: cell-based; conditions: for Ki: read-out: Ki
T1 construct: endogenous in cells; host or cells: Caco-2 (human colon carcinoma, ATCC)
T1 sequence (P46059 1-708): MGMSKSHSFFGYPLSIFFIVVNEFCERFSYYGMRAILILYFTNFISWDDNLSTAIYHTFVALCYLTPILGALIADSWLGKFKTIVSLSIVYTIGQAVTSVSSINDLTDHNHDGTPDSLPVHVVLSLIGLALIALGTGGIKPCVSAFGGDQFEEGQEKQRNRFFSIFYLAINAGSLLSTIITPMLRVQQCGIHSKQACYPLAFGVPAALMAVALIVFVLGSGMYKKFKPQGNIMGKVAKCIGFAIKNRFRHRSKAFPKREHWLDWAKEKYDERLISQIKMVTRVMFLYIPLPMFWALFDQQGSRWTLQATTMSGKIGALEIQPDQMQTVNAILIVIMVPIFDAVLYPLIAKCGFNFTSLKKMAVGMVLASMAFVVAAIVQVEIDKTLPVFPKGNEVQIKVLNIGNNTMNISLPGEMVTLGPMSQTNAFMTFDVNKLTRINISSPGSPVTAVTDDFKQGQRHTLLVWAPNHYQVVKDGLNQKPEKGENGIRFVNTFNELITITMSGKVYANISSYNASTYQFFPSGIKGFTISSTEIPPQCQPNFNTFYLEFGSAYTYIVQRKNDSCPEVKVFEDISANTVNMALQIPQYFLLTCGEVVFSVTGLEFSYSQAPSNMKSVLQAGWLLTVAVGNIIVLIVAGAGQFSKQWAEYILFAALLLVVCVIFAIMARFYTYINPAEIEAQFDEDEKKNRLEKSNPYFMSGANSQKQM
Text: Materials: [^3H] Glycylsarcosine (Gly-Sar; 4 Ci/mmol) was purchased from Moravek Biochemicals (Brea, Calif.) and [^14C] Mannitol (50 mCi/mmol) was supplied by Amersham (Piscataway, N.J.). Human colon carcinoma derived Caco-2 cells were obtained from American Type Culture Collection (ATCC, Rockville, Md.). The growth medium, Dulbecco's modified Eagle Medium was obtained from Life Technologies (Grand Island, N.Y.). […] Fetal bovine serum (FBS) was purchased from JRH Biosciences (Lenexa, Kans.). Culture flasks (75 cm^2 growth area), polyester Transwells® (pore size 0.4 Cm with diameter 6.5 mm) and polyester membranes (pore size 0.4 Cm) were procured from Costar (Bedford, Mass.). The buffer components and solvents were obtained from Fisher Scientific (St. Louis, Mo.). All the di-peptide esters of acyclovir were custom synthesized in our laboratory. […] Cell Culture: All cultures were maintained in humidified incubator at 37° C. with a 5% carbon dioxide in air atmosphere. Caco-2 cells were obtained at passage 25 from American Type Culture Collection (ATCC) and grown in plastic tissue culture flasks. […] When 80% confluent, these cells were removed by treating them with Trypsin/EDTA and plated at a density of 100,000 cells/cm^2 on collagen coated plastic dishes containing clear polyester membranes (0.636 cm^2, […]) or 12-well tissue culture treated plastic plates. Cells were then grown in medium containing 10% FBS (heat-inactivated). […] [^14C] […] Metabolism studies in Cell Suspensions: Confluent Caco-2 cells, grown in tissue culture flasks were isolated with the aid of mechanical scraper and washed thrice with DPBS. […] One-hundred micro-liters of samples were withdrawn at predetermined time intervals and the sample was purified by precipitating the cellular proteins into the organic solvent mixture and stored at −80° C. until further analysis. The protein content of the cell suspension was determined by the method of Bradford using bovine serum albumin as the standard (BioRad protein estimation kit, Hercules, Calif.). […] Transport studies: Transport experiments were done using Side-Bi-Side™ diffusion cells (type VSC-1, Crown Glass Company Inc.) and Transwell® inserts. Prior to the experiment with Gly-Sar, Caco-2 cell monolayers grown on the clear polyester membranes and Transwell® inserts were washed with DPBS (pH 6.0) and incubated at 37° C. Freshly prepared drug solutions in DPBS (pH 6.0) was placed in the donor chamber and the receiver chamber was filled with DPBS. The volumes of donor and receptor chambers were 3 ml each for Side-Bi-Side™ diffusion cells and 0.5 ml and 1.5 ml respectively for Transwell® inserts. […] The samples were stored at −80° C. until analyzed HPLC. All experiments were performed at 37° C. […] The concentration dependent uptake of glycylsarcosine was studied using [^3H] […] For Dixon plots and Dose Response studies [^3H] […] Following incubation, the cell monolayers were washed three times with ice-cold HEPES buffer to terminate the uptake experiment. After the washings cells were lysed overnight using 1 ml 0.1% (w/v) Triton X-100 in 0.3 N NaOH at room temperature. Aliquots (500 μl) from each well were then transferred to scintillation vials containing 5 ml scintillation cocktail (Fisher Scientific, Fairlawn, N.J.). […] The amount of protein in the cell lysate was measured by the BioRad protein estimation kit using bovine serum albumin as standard (BioRad Protein estimation Kit, Hercules, Calif.). Analytical Procedures: All samples were assayed using HPLC. […] The column used was a C18 Luna column 4.6×250 mm (Phenomenex). The mobile phase consisted of a mixture of buffer and an organic modifier. The percentage of organic phase was varied in order to elute compounds of interest.

[2] = system: oligopeptide transporter on the rabbit cornea; conditions: +10 mM of the ester
Caco-2 cell suspension = Caco-2 cell suspension at pH 7.4; * = no intact drug detected during the experiment
[3] = Corneal permeation across freshly excised rabbit cornea; conditions: New Zealand albino
in vitro [4] = conditions: human, Caco-2, pH 7.4
EBV = assay: In vitro antiviral screening, VCA Elisa; assay type: cell-based, epstein-barr virus; conditions: human gammaherpesvirus 4; EBV, VCA Elisa
Aqueous solubility = assay type: physicochemical
HSV-2 = assay: In vitro antiviral screening, CPE inhibition in HFF cells; assay type: cell-based, herpes simplex virus 2; conditions: Human alphaherpesvirus 2, HFF; HSV-2, CPE Inhibition
in vitro [5] = conditions: New Zealand albino, rabbit
HSV-1 = assay: In vitro antiviral screening, CPE inhibition in HFF cells; assay type: cell-based, herpes simplex virus 1; conditions: Human alphaherpesvirus 1, HFF
[6] = New Zealand albino, rabbit

O=c1[nH]c(=O)n([C@H]2C[C@H](O)[C@@H](CO)O2)cc1C(F)(F)F [TFT, trifluorothymidine, reference compound]
Concentration required to achieve an SLE Score of 0.3 (HSV-1 strain McKrae): 33.3 mM | percent survival ([1]; 0.025 mM): 86.98% | percent survival ([1]; 0.1 mM): 80.48% | percent survival ([1]; 0.5 mM): 64.76% | percent survival ([1]; 1 mM): 54.35% | % viable cells ([1]; 5 mM): 0.01% and 0.01±0.1% | percent survival ([1]; 5 mM): 0.01% | Concentration required to achieve an SLE Score of 0.2 (HSV-1 strain RE): 33.3 mM

CC(C)C(NC(=O)C(N)Cc1ccc(O)cc1)C(=O)OCCOCn1cnc2c(=O)[nH]c(N)nc21 (stereo not drawn) [Tyr-Val-ACV]
Vmax of Gly-Sar uptake in presence of the drug (hPEPT1; Gly-Sar with drug (10 mM), Lineweaver-Burk): 0.091 ± 0.07 µmol/min/mg | Ki (hPEPT1; Lineweaver-Burk): 4110 ± 320 µM | Ki (hPEPT1; Michaelis-Menten): 4960 ± 970 µM | hydrolytic rate constant k (Aqueous Humor): 2.3 (±0.11) k × 10^3 min^−1 mg^−1 protein | hydrolytic rate constant k (Cornea homogenate): 4.9 (±0.69) k × 10^3 min^−1 mg^−1 protein | hydrolytic rate constant k (Iris-Ciliary Body homogenate): 5.3 (±0.74) k × 10^3 min^−1 mg^−1 protein | hydrolytic rate constant k (Lens homogenate): 3.1 (±0.63) k × 10^3 min^−1 mg^−1 protein | hydrolytic rate constant k (Vitreous Humor): 1.7 (±0.56) k × 10^3 min^−1 mg^−1 protein | Papp (% Control) of [3H] Val-ACV [2]: 31.1 (±9.5) % Control | 10^2 × kobs (Caco-2 cell suspension): 10.1 ± 0.46 min^−1mg^−1 protein | Papp at 3 h [3]: 7.19 ×10⁻⁶ cm/s | half-life at 0.2 mM (in vitro [4]): 6.9 ± 0.3 min

Nc1nc2c(ncn2COCCO)c(=O)[nH]1 [ACV, 2-amino-1,9-dihydro-9-[(2-hydroxyethoxy)methyl]-6H-purin-6-one]
percent survival ([1]; 0.025 mM): 94.71% | percent survival ([1]; 0.1 mM): 89.41% | percent survival ([1]; 0.5 mM): 69.81% | percent survival ([1]; 1 mM): 57.37% | % viable cells ([1]; 5 mM): 49.1±4.2% | percent survival ([1]; 5 mM): 49.12% | EC50 (EBV): 7.5 µM | solubility (Aqueous solubility; 25° C.): 2500 µg/mL (≈ 11.1 mM) | solubility (Aqueous solubility; aqueous medium, 37° C., read-out: saturable solubility): 2000 µg/mL (≈ 8.88 mM) | EC50 (HSV-2): 6.6 µM | Papp (in vitro [5]): 4.24 ± 1.41 ×10⁻⁶ cm/s | effect on the uptake of [3H] Gly-Sar (hPEPT1; Caco-2, pH 6.0, 10 minutes): did not inhibit | EC50 (HSV-1; read-out: EC50 (concentration required to inhibit viral cytopathogenicity by 50%), HSV-1, CPE Inhibition): 7.1 µM | EC50 (HSV-1; HSV-1, running text, read-out: EC50 against HSV-1): 7.1 µM | Papp [6]: 4.24 ×10⁻⁶ cm/s
